Measured values from PMC9636434, “Discovery of small molecule agonists of the Relaxin Family Peptide Receptor 2” (Communications Biology, 2022).
pEC50: −log10 of the molar value. Where “and” joins values, the source holds several entries; their conditions need not be identical. Identical values can stand only once. Like-named read-outs stand apart in the source and are kept apart here.

Key:
[1] = target: T1, WT RXFP2 (Homo sapiens, UniProt Q8WXD0); test: HTRF cAMP assay in HEK293T cells transiently transfected with WT RXFP2; assay type: cell-based; settings: for Emax: HEK-293T
T1 construct: FLAG (N); expressed in transfected cells; host or cells: HEK293T (transient)
Experimental: Fig. 2 6641 is an allosteric agonist of RXFP2. a HEK-RXFP2 cells co-treated with serial dilutions of INSL3 B dimer antagonist and 30 nM INSL3 or 0.28 µM 6641. HTRF cAMP dose-response inhibition curves were normalized to activity without antagonist co-treatment as 0% inhibition. b HTRF cAMP assay in HEK293T cells transiently transfected with WT or chimeric receptors. Chimera RXFP2-1 contains the extracellular domain of RXFP2 and the transmembrane domain of RXFP1, while chimera RXFP1-2 contains the extracellular domain of RXFP1 and the transmembrane domain of RXFP2. For each receptor, cAMP response induced by INSL3 and 6641 was normalized to FSK (2 µM) as 100% efficacy and DMSO vehicle as 0% efficacy. Emax and EC50 were calculated using four parameter nonlinear fit dose-response curves. Results are expressed as mean ± SEM of 3 independent experiments. Diagrams of the chimeric receptors were produced using GPCRdb.org[58], [59].
Complementary RXFP2-1 and RXFP1-2 chimeric receptors were used to further investigate the involvement of the RXFP2 extracellular and transmembrane domains on 6641 activity. RXFP2-1 has the extracellular domain of RXFP2 and transmembrane domain of RXFP1, and RXFP1-2 is its complement.
(§1) The HTRF Gs dynamic cAMP assay kit (CisBio, Bedford, MA) was used to measure intracellular cAMP accumulation in HEK293T cells (ATCC, Manassas, VA)[56]. […] The cell stock was verified mycoplasma free and authenticated by ATCC. Transient transfection was accomplished by treating cells in a 6-well plate with a mixture of 2 μg plasmid and 6 μL Lipofectamine 2000 (Invitrogen, Waltham, MA) per manufacturer’s protocol and incubating overnight. For cAMP measurement in 96-well format, HEK293T cells stably transfected with human RXFP2 (HEK-RXFP2), human RXFP1 (HEK-RXFP1), mouse Rxfp1 (HEK-Rxfp1) or transiently transfected with human RXFP1-RXFP2 chimeric receptors were seeded between 7500 and 30,000 cells per well, depending on cell line responsiveness, in serum-free DMEM medium and incubated overnight at 37 °C, 5% CO2. After 18 h, cells were treated with a titration of compound, 2 μM forskolin, or DMSO vehicle. Control wells were also treated with a titration of INSL3 (Phoenix Pharmaceuticals, Burlingame, CA) or human recombinant relaxin 2 (Peprotech, Cranbury, NJ). For the RXFP2 antagonist experiment, cells were co-treated with 0.28 μM compound or 30 nM INSL3 and a titration of the INSL3 B dimer antagonist[38],[39]. For the INSL3 allosteric modulation experiment, cells were co-treated with 0.025, 0.0025, or 0.00025 μM of compound and a titration of INSL3. Cells were incubated for 1 h at 37 °C, 5% CO2, and then kit cAMP-d2 and anti-cAMP antibody were added per manufacturer protocol. Plates were incubated for 1 h at room temperature and the signal was read on a CLARIOstar plate reader (BMG Labtech, Ortenberg, Germany) at 665 and 620 nm emission wavelengths.

[2] = target: RXFP2 (Homo sapiens, UniProt Q8WXD0); test: INSL3 allosteric modulation experiment, HTRF cAMP, co-treatment 6641 and INSL3; assay type: cell-based; design: FLAG (N); expressed in transfected cells; settings: for % Eff: 6641 alone, replicates (1)-(3)
Source text: We have further analyzed the effect of simultaneous activation of human RXFP2 with 6641 and INSL3 to evaluate possible allosteric modulation of INSL3 cAMP signaling by the small molecule (Supplementary Fig. 8).
as §1
cAMP response in HEK293T cells expressing human RXFP2 was measured by HTRF
assay after treatment with a titration of INSL3 and suboptimal concentrations of 6641.
Results are expressed as mean ± SEM of 3 independent experiments.
(1 picture or pasted object on this page, not shown here)

T1 sequence (Q8WXD0 whole entry): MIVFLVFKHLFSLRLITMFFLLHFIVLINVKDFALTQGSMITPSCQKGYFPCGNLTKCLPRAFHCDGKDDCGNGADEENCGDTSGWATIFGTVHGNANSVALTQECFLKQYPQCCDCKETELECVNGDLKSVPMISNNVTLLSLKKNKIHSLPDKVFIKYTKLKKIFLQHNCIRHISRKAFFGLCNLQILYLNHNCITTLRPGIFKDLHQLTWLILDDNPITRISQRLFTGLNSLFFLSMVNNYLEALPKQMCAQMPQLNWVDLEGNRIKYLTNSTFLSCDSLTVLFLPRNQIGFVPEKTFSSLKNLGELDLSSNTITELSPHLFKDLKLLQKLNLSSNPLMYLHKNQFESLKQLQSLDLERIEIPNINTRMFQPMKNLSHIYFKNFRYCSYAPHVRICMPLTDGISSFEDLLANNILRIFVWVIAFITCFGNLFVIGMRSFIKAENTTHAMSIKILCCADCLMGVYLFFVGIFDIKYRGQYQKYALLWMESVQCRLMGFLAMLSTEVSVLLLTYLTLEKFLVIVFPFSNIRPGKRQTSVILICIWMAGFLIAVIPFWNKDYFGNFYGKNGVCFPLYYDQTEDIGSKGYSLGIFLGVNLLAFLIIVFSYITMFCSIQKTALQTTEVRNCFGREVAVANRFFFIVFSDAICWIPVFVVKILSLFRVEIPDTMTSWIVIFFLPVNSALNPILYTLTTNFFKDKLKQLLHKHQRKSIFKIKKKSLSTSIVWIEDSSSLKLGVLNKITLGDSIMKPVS
RXFP2, sequence (Q8WXD0 whole entry): as above

## O=C1Nc2ccc(-c3cc(C(F)(F)F)cc(C(F)(F)F)c3)cc2C(=O)N2CCN(C(=O)COc3ccc(OC(F)(F)F)cc3I)C[C@@H]12 [compound 6641]
[1]; 6641, individual experiments, read-out: EC50 (1)-(3)
  pEC50: 8.33 and 7.55 and 8.50
[1]; 6641, mean (± SEM) of 3, read-out: EC50 (AVERAGE)
  pEC50: 7.92
[1]; individual experiments, FSK (2 µM) = 100% efficacy, DMSO = 0%, read-out: Emax (1)-(3)
  Emax: 91.1%
[1]; mean (± SEM) of 3, FSK (2 µM) = 100% efficacy, read-out: Emax (AVERAGE)
  Emax: 86.3%
[1]; individual experiments, FSK (2 µM) = 100% efficacy, DMSO = 0%
  Emax (1)-(3): 79.79% and 88%
[2]; 0.025, 0.0025 or 0.00025 μM compound and titration of INSL3
  effect of co-stimulation with INSL3 on cAMP production: simple additive effect
[2]; Log [M] -4.60
  % Eff: 75.1113% and 97.1676% and 94.1213%
[2]; Log [M] -5.60
  % Eff: 93.2943% and 114.987% and 113.554%
[2]; Log [M] -6.60
  % Eff: 74.6686% and 120.861% and 97.4942%
[2]; Log [M] -7.60
  % Eff: 50.914% and 51.0623% and 52.8348%
[2]; Log [M] -8.60
  % Eff: 8.681% and 8.081% and 10.3062%
[2]; Log [M] -9.60
  % Eff: 0.2079% and -1.122% and -1.231%
